The source of these data is the NIST ThermoML archive (doi:10.1016/j.tca.2016.01.003).

Molecules are shown by their SMILES. Numbers after ± are expanded uncertainties.

The nature of series [1]: Molar enthalpy of transition or fusion. Particulars: Crystal; DSC.
The conditions of series [2]: Crystal; DTA.

For the compound `CN1C(=O)N[C@H]2NC(=O)N(C)[C@H]21`, the “Molar enthalpy of transition or fusion” value in series [1] came out at 10.3 ± 0.239 kcal/mol. The Normal melting temperature in series [2] worked out at 303 ± 0.6 °C.
